Laboratory results: patent US6794386B2, “β-amino acid compounds as integrin antagonists” (Bayer Aktiengesellschaft, priority 2000, dated 2004)

Molecular target: T1, VLA-4 (Homo sapiens, UniProt P05556+P13612)
T1 construct: host or cells: Jurkat clone E6-1
Assay: Adhesion of Jurkat cells to immobilized VCAM-1 (domains 1-3)
Format: cell-based
Settings: adhesion of CFSE-labeled Jurkat cells to recombinant human VCAM-1 (domains 1-3) coated plates; compounds as yielded by solid phase synthesis, purity about 40-90%; read-out: IC50
Outline: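 CFSE-labelled Jurkat E6-1 cells in Tris buffer pH 7.4 with 2 mM MnCl2 were added to wells coated with insect-cell-expressed human VCAM-1 domains 1-3 (0.5 μg/ml coating solution); labelled cells were incubated for 30 min at 37 °C with the VLA-4 inhibitor.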

T1 sequence (P13612 34-1032): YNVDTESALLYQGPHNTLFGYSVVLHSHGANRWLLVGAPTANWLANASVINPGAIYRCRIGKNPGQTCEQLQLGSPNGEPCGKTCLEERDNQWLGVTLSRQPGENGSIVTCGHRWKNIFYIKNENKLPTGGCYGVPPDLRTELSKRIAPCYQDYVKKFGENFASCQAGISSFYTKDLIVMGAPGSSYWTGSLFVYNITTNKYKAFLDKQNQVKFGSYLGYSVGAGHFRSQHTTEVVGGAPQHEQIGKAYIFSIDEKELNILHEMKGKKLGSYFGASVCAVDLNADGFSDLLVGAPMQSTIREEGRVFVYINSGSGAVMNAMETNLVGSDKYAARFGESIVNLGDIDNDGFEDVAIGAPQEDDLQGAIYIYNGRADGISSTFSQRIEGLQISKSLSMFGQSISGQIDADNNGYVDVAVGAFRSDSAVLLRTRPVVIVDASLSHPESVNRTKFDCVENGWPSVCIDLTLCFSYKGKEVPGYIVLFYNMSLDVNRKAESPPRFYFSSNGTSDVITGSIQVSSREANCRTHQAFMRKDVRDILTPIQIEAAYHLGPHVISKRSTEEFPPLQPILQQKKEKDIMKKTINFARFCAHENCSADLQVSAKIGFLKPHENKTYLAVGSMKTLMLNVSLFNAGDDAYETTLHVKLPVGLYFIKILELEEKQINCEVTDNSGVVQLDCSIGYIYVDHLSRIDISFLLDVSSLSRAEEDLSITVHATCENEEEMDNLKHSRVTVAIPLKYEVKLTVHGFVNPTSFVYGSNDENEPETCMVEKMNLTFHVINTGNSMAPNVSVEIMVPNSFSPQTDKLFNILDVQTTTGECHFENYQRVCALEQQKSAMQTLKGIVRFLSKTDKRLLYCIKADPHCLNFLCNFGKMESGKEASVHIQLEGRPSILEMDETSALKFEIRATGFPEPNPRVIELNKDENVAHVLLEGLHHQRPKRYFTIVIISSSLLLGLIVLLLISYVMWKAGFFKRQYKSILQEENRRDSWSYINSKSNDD
T1 sequence (P05556 21-798): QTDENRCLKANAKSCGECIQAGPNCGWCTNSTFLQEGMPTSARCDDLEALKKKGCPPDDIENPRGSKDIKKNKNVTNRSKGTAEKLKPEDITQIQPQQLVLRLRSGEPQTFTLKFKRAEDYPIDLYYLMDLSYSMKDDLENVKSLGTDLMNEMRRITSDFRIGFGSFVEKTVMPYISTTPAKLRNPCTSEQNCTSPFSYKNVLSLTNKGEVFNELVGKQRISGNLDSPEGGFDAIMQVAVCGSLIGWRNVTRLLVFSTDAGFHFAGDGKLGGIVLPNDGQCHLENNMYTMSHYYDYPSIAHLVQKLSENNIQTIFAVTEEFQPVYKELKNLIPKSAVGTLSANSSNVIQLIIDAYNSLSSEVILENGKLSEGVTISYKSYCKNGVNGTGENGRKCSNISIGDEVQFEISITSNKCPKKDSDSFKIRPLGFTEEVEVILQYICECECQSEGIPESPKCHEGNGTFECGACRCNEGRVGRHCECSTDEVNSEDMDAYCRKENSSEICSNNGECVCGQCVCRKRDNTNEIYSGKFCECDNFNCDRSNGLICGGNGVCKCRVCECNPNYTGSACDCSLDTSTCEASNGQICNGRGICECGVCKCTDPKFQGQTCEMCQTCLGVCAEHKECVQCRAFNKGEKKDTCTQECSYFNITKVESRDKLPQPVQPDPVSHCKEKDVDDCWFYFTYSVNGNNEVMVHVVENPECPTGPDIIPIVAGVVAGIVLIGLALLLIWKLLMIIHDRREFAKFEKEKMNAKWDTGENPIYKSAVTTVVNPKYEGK

SMILES | IC50 [nM]
COc1ccccc1C(=O)N1CCCC(C(=O)N[C@@H](Cc2ccc(NC(=O)N3CCOCC3)cc2)C(=O)O)C1 (stereo partly drawn) [Example 4.22] | ≤ 500
COc1ccc(CC(=O)N2CCCC(C(=O)N[C@H](Cc3ccc(NC(=O)N4CCc5ccccc5C4)cc3)C(=O)O)C2)cc1 (stereo partly drawn) [Example 4.23] | 500 to 2000
COc1ccccc1C(=O)N1CCCC(C(=O)N[C@@H](Cc2ccc(NC(=O)NC3CCN(Cc4ccccc4)CC3)cc2)C(=O)O)C1 (stereo partly drawn) [Example 4.24] | 500 to 2000
O=C(N[C@@H](Cc1ccc(NC(=O)N2CCOCC2)cc1)C(=O)O)C1CCCN(C(=O)Cc2cccs2)C1 (stereo partly drawn) [Example 4.25] | ≤ 500
O=C(Nc1ccc(C[C@H](NC(=O)C2CCCN(C(=O)Cc3ccccc3)C2)C(=O)O)cc1)NC1CCN(Cc2ccccc2)CC1 (stereo partly drawn) [Example 4.26] | 2000 to 10000
COc1ccccc1C(=O)N1CCCC(C(=O)N[C@@H](Cc2ccc(NC(=O)N3CCc4ccccc4C3)cc2)C(=O)O)C1 (stereo partly drawn) [Example 4.27] | ≤ 500
CN1CCN(C(=O)Nc2ccc(C[C@H](NC(=O)C3CCCN(S(=O)(=O)Cc4ccccc4)C3)C(=O)O)cc2)CC1 (stereo partly drawn) [Example 4.28] | 500 to 2000
O=C(N[C@@H](Cc1ccc(NC(=O)N2CCOCC2)cc1)C(=O)O)C1CCCN(S(=O)(=O)c2cc(Cl)cc(Cl)c2)C1 (stereo partly drawn) [Example 4.29] | ≤ 500
O=C(N[C@@H](Cc1ccc(NC(=O)N2CCOCC2)cc1)C(=O)O)C1CCCN(S(=O)(=O)c2ccc3ccccc3c2)C1 (stereo partly drawn) [Example 4.30] | ≤ 500
CS(=O)(=O)N1CCCC(C(=O)N[C@@H](Cc2ccc(NC(=O)N3CCN(C(c4ccccc4)c4ccccc4)CC3)cc2)C(=O)O)C1 (stereo partly drawn) [Example 4.31] | 500 to 2000
Cc1ccc(S(=O)(=O)N2CCCC(C(=O)N[C@@H](Cc3ccc(NC(=O)NC4CCN(Cc5ccccc5)CC4)cc3)C(=O)O)C2)cc1 (stereo partly drawn) [Example 4.32] | 2000 to 10000
O=C(N[C@@H](Cc1ccc(NC(=O)N2CCc3ccccc3C2)cc1)C(=O)O)C1CCCN(S(=O)(=O)c2cccs2)C1 (stereo partly drawn) [Example 4.33] | ≤ 500
COc1ccc(S(=O)(=O)N2CCCC(C(=O)N[C@@H](Cc3ccc(NC(=O)N4CCOCC4)cc3)C(=O)O)C2)cc1OC (stereo partly drawn) [Example 4.34] | ≤ 500
Cc1ccc(S(=O)(=O)N2CCCC(C(=O)N[C@@H](Cc3ccc(NC(=O)N4CCN(C(c5ccccc5)c5ccccc5)CC4)cc3)C(=O)O)C2)cc1 (stereo partly drawn) [Example 4.35] | 500 to 2000
O=C(NCC(c1ccccc1)c1ccccc1)Nc1ccc(C[C@H](NC(=O)C2CCCN(S(=O)(=O)c3cccs3)C2)C(=O)O)cc1 (stereo partly drawn) [Example 4.36] | 2000 to 10000
CS(=O)(=O)N1CCCC(C(=O)N[C@@H](Cc2ccc(NC(=O)N3CCN(c4ccccc4)CC3)cc2)C(=O)O)C1 (stereo partly drawn) [Example 4.37] | 500 to 2000
COc1ccc(Cl)cc1S(=O)(=O)N1CCCC(C(=O)N[C@@H](Cc2ccc(NC(=O)N3CCN(c4ccccc4)CC3)cc2)C(=O)O)C1 (stereo partly drawn) [Example 4.38] | 500 to 2000
O=C(N[C@@H](Cc1ccc(NC(=O)N2CCc3ccccc3C2)cc1)C(=O)O)C1CCCN(S(=O)(=O)c2ccc3ccccc3c2)C1 (stereo partly drawn) [Example 4.39] | 2000 to 10000
COc1ccc(S(=O)(=O)N2CCCC(C(=O)N[C@@H](Cc3ccc(NC(=O)NC4CCN(Cc5ccccc5)CC4)cc3)C(=O)O)C2)cc1OC (stereo partly drawn) [Example 4.40] | 2000 to 10000
O=C(N[C@@H](Cc1ccc(NC(=O)N2CCCCC2)cc1)C(=O)O)C1CCCN(S(=O)(=O)c2ccc3ccccc3c2)C1 (stereo partly drawn) [Example 4.41] | ≤ 500
O=C(N[C@@H](Cc1ccc(NC(=O)N2CCOCC2)cc1)C(=O)O)C1CCCN(S(=O)(=O)c2cccs2)C1 (stereo partly drawn) [Example 4.42] | ≤ 500
Cc1ccc(S(=O)(=O)N2CCCC(C(=O)N[C@@H](Cc3ccc(NC(=O)N4CCOCC4)cc3)C(=O)O)C2)cc1 (stereo partly drawn) [Example 4.43] | ≤ 500
O=C(N[C@@H](Cc1ccc(NC(=O)N2CCOCC2)cc1)C(=O)O)C1CCCN(S(=O)(=O)Cc2ccccc2)C1 (stereo partly drawn) [Example 4.44] | 500 to 2000
COc1ccc(S(=O)(=O)N2CCCC(C(=O)N[C@@H](Cc3ccc(NC(=O)N4CCN(C(c5ccccc5)c5ccccc5)CC4)cc3)C(=O)O)C2)cc1OC (stereo partly drawn) [Example 4.45] | 500 to 2000
